A short description of data set [1]: Inhibition of mitochondrial complex I (unknown origin) incubated for 15 mins by microplate reader analysis. Details: species or system Homo sapiens.
The species entered for the next data set is Homo sapiens. The data set can be described thus: Inhibition of mitochondrial complex I (unknown origin) at 1 uM incubated for 15 mins by microplate reader analysis relative to control.
In data set [2] the test system is HCT-116. In words: Induction of mitochondrial membrane potential depolarization in human HCT-116 cells at 2 nM incubated for 24 hrs by JC-1 staining based flow cytometry analysis. Format: functional.
A short description of data set [3]: Apparent permeability across apical to basolateral side in human Caco-2 cells incubated for 120 mins by LC-MS/MS analysis. It is filed as ADME, cell-based. For orientation: Caco-2 monolayers are a common model of the intestinal barrier.
The test system of data set [4] is KG-1. The data set can be described thus: Induction of ROS generation in human KG-1 cells at 32 nM measured for 30 mins by DCFDA-staining based flow cytometry analysis. It is filed as functional, cell-based.
The subject of data set [5] is HCT-116. In words: Antiproliferative activity against human HCT-116 cells assessed as inhibition of cell growth incubated for 96 hrs by MTT assay. It is filed as functional, cell-based. The note with it: HCT-116, 96 h.
A short description of data set [6]: Efflux ratio of apparent permeability across basolateral to apical membrane to apical to basolateral membrane in human Caco-2 cells incubated for 120 mins by LC-MS/MS analysis. It is filed as ADME, cell-based.
Data set [7] can be described thus: Apparent permeability across basolateral side to apical in human Caco-2 cells incubated for 120 mins by LC-MS/MS analysis. Format: ADME, cell-based.
Data set [8] deals with KG-1. The data set can be described thus: Antiproliferative activity against human KG-1 cells assessed as inhibition of cell growth incubated for 96 hrs by MTT assay. It is filed as functional, cell-based. The note with it: KG-1, 96 h. (Tetrazolium assays rely on reduction of a dye to a coloured formazan, in cell work by metabolically active cells.)
For the next data set, the system named is NCM460. In words: Antiproliferative activity against human NCM460 cells assessed as inhibition of cell growth incubated for 96 hrs by MTT assay. The note with it: NCM460, 96 h. It is filed as functional, cell-based.

The source of these data is ChEMBL document CHEMBL5620406, “Synthesis and biological evaluation of novel pyrazole amides as potent mitochondrial complex I inhibitors” (Eur J Med Chem, 2023).

Calls of active or inactive are those of the source. The calls are words filed in the database; no cut-off is given here.

For the molecule `Cc1cc(C(=O)Nc2ccc(OC(F)(F)F)cc2)nn1Cc1cccc(N2CCN(S(C)(=O)=O)CC2)c1`, in data set [1], the IC50 (usually the concentration needed to halve the response being measured) came out at 1060 nM. Besides, in the data set listed under Homo sapiens, the inhibition (as a rule, the percentage by which the read-out fell short of the control) was 50.4%.

As to `Cc1cccc(NC(=O)c2cc(C)n(Cc3cccc(N4CCN(C(=O)C5CC5)CC4)c3)n2)c1`, the inhibition in the data set filed under Homo sapiens is 6.44%.

In the data set listed under Homo sapiens, `CS(=O)(=O)C1CCN(c2cccc(Cn3ccc(C(=O)Nc4ccc(OC(F)(F)F)cc4)n3)c2)CC1` registered an inhibition of 26.6%.

In turn, `Cc1cc(C(=O)Nc2ccc(OC(F)(F)F)cc2)nn1Cc1cccc(N2CCS(=O)(=O)CC2)c1` had an inhibition in the data set filed under Homo sapiens of 6.09%.

As for `Cc1ccc(NC(=O)c2cc(C)n(Cc3cccc(N4CCN(C(=O)C5CC5)CC4)c3)n2)cc1`, the inhibition in the data set listed under Homo sapiens came out at 7.73%.

The molecule `Cc1cc(C(=O)Nc2ccc(OC(F)(F)F)cc2)nn1Cc1cccc(-c2ccc(S(C)(=O)=O)cc2)c1` yielded an IC50 in data set [1] of 860 nM. The molecule also displayed an inhibition in the data set filed under Homo sapiens of 52.5%.

For the molecule `Cc1cc(C(=O)Nc2cccc(OC(F)(F)F)c2)nn1Cc1cccc(N2CCN(C(=O)C3CC3)CC2)c1`, in the data set filed under Homo sapiens, the inhibition is 3.1%.

In the data set listed under Homo sapiens, `COc1ccc(NC(=O)c2cc(C)n(Cc3cccc(N4CCN(C(=O)C5CC5)CC4)c3)n2)cc1` had an inhibition of 5.23%.

In turn, `CS(=O)(=O)C1CCN(c2cccc(Cn3nc(C(=O)Nc4ccc(OC(F)(F)F)cc4)c4c5nn(c6c5CCC6)c43)c2)CC1` came in with an IC50 in data set [1] of 91300 nM. Moreover, in the data set listed under Homo sapiens, the inhibition worked out at 29.2%.

The molecule `Cc1cc(C(=O)Nc2ccccc2)nn1Cc1cccc(N2CCN(C(=O)C3CC3)CC2)c1` came in with an inhibition in the data set listed under Homo sapiens of 7.12%.

In turn, `Cc1cc(C(=O)Nc2cccnc2)nn1Cc1cccc(N2CCN(C(=O)C3CC3)CC2)c1` gave an inhibition in the data set filed under Homo sapiens of 16.1%.

`COc1ccccc1-c1cccc(Cn2nc(C(=O)Nc3ccc(OC(F)(F)F)cc3)cc2C)c1`: the inhibition in the data set listed under Homo sapiens was found to be 3.57%.

In turn, `COc1ccc(NC(=O)c2cc(C)n(Cc3cccc(N4CCN(C(=O)C5CC5)CC4)c3)n2)cc1OC` gave an inhibition in the data set filed under Homo sapiens of 4.85%.

On to `C=C(C)[C@H]1Cc2c(ccc3c2O[C@@H]2COc4cc(OC)c(OC)cc4[C@@H]2C3=O)O1`, for which the inhibition in the data set filed under Homo sapiens was found to be 71.8%.

In the data set filed under Homo sapiens, `Cc1cc(C(=O)Nc2ccc(OC(F)(F)F)cc2)nn1Cc1cccc(S(=O)(=O)N2CCOCC2)c1` came in with an inhibition of 4.42%.

As to `Cc1cc(C(=O)Nc2ccc(OC(F)(F)F)cc2)nn1Cc1ccc2ccccc2c1`, in the data set filed under Homo sapiens, the inhibition was found to be 4.6%.

Molecule `Cc1cc(C(=O)Nc2ccc(OC(F)(F)F)cc2)nn1Cc1cccc(-c2ccc(C(C)(C)C)cc2)c1` displayed an inhibition in the data set listed under Homo sapiens of 29.6%.

For the molecule `Cc1cc(C(=O)Nc2ccc(OC(F)(F)F)cc2)nn1Cc1cccc(-c2ccccc2O)c1`, the inhibition in the data set listed under Homo sapiens is 25.6%.

Regarding `Cc1cc(C(=O)Nc2cccc(F)c2)nn1Cc1cccc(N2CCN(C(=O)C3CC3)CC2)c1`, the inhibition in the data set listed under Homo sapiens was determined as 1.54%.

In the data set filed under Homo sapiens, `Cc1cc(C(=O)Nc2ccc(OC(F)(F)F)cc2)nn1Cc1cccc(N(C)C2CCOCC2)c1` came in with an inhibition of 13.5%.

In the case of `Cc1cc(C)cc(-c2cccc(Cn3nc(C(=O)Nc4ccc(OC(F)(F)F)cc4)cc3C)c2)c1`, in the data set filed under Homo sapiens, the inhibition came out at 3.73%.

In turn, `Cc1nc(-c2nc(-c3ccc(OC(F)(F)F)cc3)no2)nn1Cc1cccc(N2CCC(S(C)(=O)=O)CC2)c1` yielded an Activity with HCT-116 [2] of 21.1%. For the same molecule, the apical-to-basolateral permeability (Papp A→B) (in general, how fast a substance crosses the layer from the apical side) at 2 h in data set [3] stood at 4.86 ×10⁻⁶ cm/s. Besides, the outcome with KG-1 [4] was Active. In addition, the IC50 in the data set on HCT-116 [5] was 9.63 nM; in data set [1], 115000 nM; in the data set on KG-1 [8], 63.8 nM; in the data set with NCM460, greater than 1000 nM. In the data set filed under Homo sapiens, this molecule displayed an inhibition of 32.7%. Also, the efflux ratio (commonly the permeability from basolateral to apical divided by that in the opposite direction, in the common usage) at 2 h in [6] was 0.68. Besides, the Papp B→A (as a rule, the apparent permeability from the basolateral to the apical side of a cell layer) at 2 h in data set [7] was determined as 3.33 ×10⁻⁶ cm/s.

In the data set listed under Homo sapiens, `Cc1cc(C(=O)Nc2ccccc2OC(F)(F)F)nn1Cc1cccc(N2CCN(C(=O)C3CC3)CC2)c1` displayed an inhibition of 1.87%.

In the case of `Cc1cc(C(=O)Nc2ccc(OC(F)(F)F)cc2)nn1Cc1ccccc1`, the inhibition in the data set listed under Homo sapiens stood at 1.03%.

Molecule `Cc1cc(C(=O)Nc2ccc(OC(F)(F)F)cc2)nn1Cc1cccnc1` came in with an inhibition in the data set filed under Homo sapiens of 1.37%.

As to `Cc1ccccc1Cn1nc(C(=O)Nc2ccc(OC(F)(F)F)cc2)cc1C`, the inhibition in the data set filed under Homo sapiens was determined as 1.7%.

`Cc1cc(C(=O)Nc2ccc(OC(F)(F)F)cc2)nn1Cc1cccc(N2CCOCC2)c1` registered an inhibition in the data set filed under Homo sapiens of 8.94%.

Molecule `COc1cc(Cn2nc(C(=O)Nc3ccc(OC(F)(F)F)cc3)cc2C)cc(OC)c1` displayed an inhibition in the data set listed under Homo sapiens of 2.05%.

`CS(=O)(=O)C1CCN(c2cccc(Cn3nc(C(=O)Nc4ccc(OC(F)(F)F)cc4)c4c5nn(c6ccccc56)c43)c2)CC1`: in data set [1], the IC50 amounted to 91300 nM. Besides, the inhibition in the data set filed under Homo sapiens came to 1.12%.

Molecule `Cc1cc(C(=O)Nc2ccc(OC(F)(F)F)cc2)nn1Cc1ccc(F)c(Br)c1` came in with an inhibition in the data set listed under Homo sapiens of 1.32%.

In the data set listed under Homo sapiens, `Cc1cc(C(=O)Nc2ccc(Cl)c(F)c2)nn1Cc1cccc(N2CCN(C(=O)C3CC3)CC2)c1` came in with an inhibition of 11.1%.

In the case of `CC(C)(C)c1cc(C(=O)Nc2ccc(OC(F)(F)F)cc2)nn1Cc1cccc(N2CCC(S(C)(=O)=O)CC2)c1`, inhibition in [1] was half-maximal at 1360 nM (IC50). The inhibition in the data set filed under Homo sapiens was 38.7%.

Turning to `Cc1cc(C(=O)Nc2ccc(OC(F)(F)F)cc2)nn1Cc1cccc(N2CCC(S(C)(=O)=O)CC2)c1`, the midpoint of inhibition in data set [1], the IC50, lay at 960 nM. In addition, the inhibition in the data set listed under Homo sapiens was determined as 49.7%.

As to `Cc1ccc(Cn2nc(C(=O)Nc3ccc(OC(F)(F)F)cc3)cc2C)cc1`, the inhibition in the data set filed under Homo sapiens amounted to 8.06%.

Turning to `Cc1ccc(NC(=O)c2cc(C)n(Cc3cccc(N4CCN(C(=O)C5CC5)CC4)c3)n2)cc1F`, the inhibition in the data set listed under Homo sapiens came out at 3.49%.

In data set [1], `CS(=O)(=O)C1CCN(c2cccc(Cn3nc(C(=O)Nc4ccc(OC(F)(F)F)cc4)cc3-c3ccccc3)c2)CC1` registered an IC50 of 1410 nM. Also, in the data set filed under Homo sapiens, the inhibition came out at 36.3%.

For the molecule `Cc1cc(C(=O)Nc2cc(F)cc(F)c2)nn1Cc1cccc(N2CCN(C(=O)C3CC3)CC2)c1`, in the data set filed under Homo sapiens, the inhibition was found to be 9.58%.

Take `Cc1cc(C(=O)Nc2ccc(OC(F)(F)F)cc2)nn1Cc1cccc(Br)c1`: in the data set filed under Homo sapiens, the inhibition was 1.54%.

As to `Cc1cc(C(=O)Nc2ccc(OC(F)(F)F)cc2)nn1Cc1ccc(N2CCC(S(C)(=O)=O)CC2)cc1`, in the data set filed under Homo sapiens, the inhibition turned out to be 3.85%.

As to `Cc1cc(C(=O)Nc2ccc(F)cc2)nn1Cc1cccc(N2CCN(C(=O)C3CC3)CC2)c1`, in the data set listed under Homo sapiens, the inhibition was determined as 8.24%.

In the case of `CS(=O)(=O)C1CCN(c2cccc(Cn3nc(C(=O)Nc4ccc(OC(F)(F)F)cc4)c4c5nn(c6c5COCC6)c43)c2)CC1`, the IC50 in data set [1] is 101000 nM. Also, the inhibition in the data set filed under Homo sapiens turned out to be 13.2%.

As to `Cc1cn(Cc2cccc(N3CCC(S(C)(=O)=O)CC3)c2)nc1C(=O)Nc1ccc(OC(F)(F)F)cc1`, the inhibition in the data set filed under Homo sapiens was found to be 9.43%.

Take `Cc1cc(C(=O)Nc2ccccc2F)nn1Cc1cccc(N2CCN(C(=O)C3CC3)CC2)c1`: in the data set listed under Homo sapiens, the inhibition is 1.72%.
